Measurements published in patent US20220305017A1, “COMPOSITIONS AND METHODS FOR THE TREATMENT OF ESTROGEN-DEPENDENT DISORDERS” (ObsEva S.A., priority 2019, published 2022).
Several values for one entry are separate records, joined by “and”; a condition that tells them apart may be missing. Equal entries are not always repeated.

How the values were obtained:
[1] = target: T1, human GnRH receptor (Homo sapiens, UniProt P30968); assay: affinity for human GnRH receptor; assay type: binding; settings: compound (VI) as well as its salts such as the choline salt; kind of constant not stated
T1 sequence (P30968 1-328): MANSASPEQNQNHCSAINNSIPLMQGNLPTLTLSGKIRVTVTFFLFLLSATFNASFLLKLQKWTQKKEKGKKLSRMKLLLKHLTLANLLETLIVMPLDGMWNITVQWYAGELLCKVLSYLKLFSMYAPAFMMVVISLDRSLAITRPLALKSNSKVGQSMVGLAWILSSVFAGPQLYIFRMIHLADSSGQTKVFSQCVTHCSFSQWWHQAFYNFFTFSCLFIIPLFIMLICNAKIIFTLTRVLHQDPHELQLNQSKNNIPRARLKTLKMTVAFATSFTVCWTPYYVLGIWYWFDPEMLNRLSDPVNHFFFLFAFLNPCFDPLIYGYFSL

[2] = test system: human female patients diagnosed as having adenomyosis; assay: human clinical trial in adenomyosis (single-patient longitudinal case study and multi-patient analysis, n = 6); assay type: in vivo
Text: This examples describes the results of a human clinical trial conducted to evaluate the ability of a GnRH antagonist, 3-[2-fluoro-5-(2,3-difluoro-6-methoxybenzyloxy)4-methoxyphenyl]-2,4-dioxo-1,2,3,4-tetrahydrothieno [3,4d]pyrimidine-5-carboxylic acid (represented by formula (VI)), or a pharmaceutically acceptable salt thereof, to treat adenomyosis, an estrogen-dependent disease, in human patients diagnosed as having this condition.
One aim of this study was to investigate the ability of the GnRH antagonist to maintain its therapeutic effects despite being administered to patients in a progressively lower dosage throughout the trial. To this end, the patients treated in this study was first administered the GnRH antagonist of formula (VI) in an amount of 200 mg/day during an initial 12-week period. The GnRH antagonist was then administered to the patients in a reduced amount of 100 mg/day during a subsequent 12-week period. The patients' responsiveness to the GnRH antagonist was monitored throughout the study.
In addition to assessing the effectiveness of the GnRH antagonist when administered at lower doses, another aim of this study was to evaluate the ability of the GnRH antagonist to sustain its therapeutic effects even after treatment was ceased altogether. Accordingly, after being periodically administered the GnRH antagonist of formula (VI) over the course of 24 weeks, first in an amount of 200 mg/day and then in an amount of 100 mg/day, treatment with the GnRH antagonist was halted entirely. The patients were then monitored during a post-treatment follow-up period to analyze the extent to which the therapeutic effects of the compound were sustained.
To test the effects of compound (VI), a total of n=6 human female patients diagnosed as having adenomyosis were administered compound (VI) in accordance with the dosing schedule described above. One of these patients in particular was closely monitored beginning well before their treatment with compound (VI) was initiated. The specific results of this patient's therapy are described in the section entitled “Single-Patient Longitudinal Case Study,” below. The cumulative set of results for all 6 patients is reported in the section entitled “Multi-Patient Analysis,” below.
As part of the clinical trial, a case study was conducted in which a single patient of reproductive age having clinically diagnosed adenomyosis was monitored during the course of treatment with compound (VI). The patient was nulliparous. Two years before the study began, the patient presented with heavy menstrual bleeding, pelvic pain, and dysmenorrhea. […] Their gynecologist prescribed ulipristal acetate (UPA), a selective progesterone receptor modulator (SPRM), to be administered in an amount of 5 mg/day over the course of a treatment period lasting three months.
The patient was then recommended for treatment with the GnRH antagonist represented by formula (VI) herein. Accordingly, the patient was orally administered compound (VI) in an amount of 200 mg/day for three months. Following this initial three-month period, the patient was orally administered compound (VI) in a reduced amount of 100 mg/day for a subsequent three-period. During both treatment periods, compound (VI) was administered to the patient in the form of a choline salt.
The patient was recommended for once-daily treatment with the GnRH antagonist of formula (VI). Accordingly, the patient was administered the GnRH antagonist of formula (VI) in an amount of 200 mg/day during a first treatment period, which lasted three months. At the conclusion of the first treatment period, the patient began a second treatment period in which they were administered compound (VI) in a reduced amount of 100 mg/day for three months. During both treatment periods, compound (VI) was administered to the patient in the form of a choline salt. […]

[3] = n = 6, after 12 weeks, 200 mg/day
[4] = single patient, after 24 weeks (200 mg/day 12 weeks, then 100 mg/day 12 weeks)

In the case of `COc1cc(F)c(-n2c(=O)[nH]c3csc(C(=O)O)c3c2=O)cc1OCc1c(OC)ccc(F)c1F` [Compound (VI), 3-[2-fluoro-5-(2,3-difluoro-6-methoxybenzyloxy)4-methoxyphenyl]-2,4-dioxo-1,2,3,4-tetrahydrothieno [3,4d]pyrimidine-5-carboxylic acid], the “affinity for human GnRH receptor” value [1] is reported as 27.4 nM, the “serum E2” value ([2]; all n = 6 cases, first 12 weeks, 200 mg/day) is reported as “less than 20 pg/ml” and the anemia ([2]; all n = 6 patients, after 12 weeks, 200 mg/day) is reported as “resolved”. The “adenomyotic lesions by MRI” value ([2]; all n = 6 patients, after 24 weeks) was “remained smaller than those observed at baseline”, the “BMD by DEXA” value ([2]; each of n = 6 patients, after 24 weeks) was “either minimal change or no change from baseline” and the “Week 24 Uterine Volume” value ([2]; individual patients 1-3, 200 mg/day 12 weeks, then 100 mg/day 12 weeks, MRI) was 440 cm^3 and 75 cm^3 and 266 cm^3. The “Week 12 Uterine Volume” value ([2]; individual patients 1-6, 200 mg/day oral for 12 weeks (choline salt), MRI) was 81 cm^3 and 70 cm^3 (2×) and 290 cm^3 and 84 cm^3 and 138 cm^3, the side effects ([2]; n = 6, 200 mg/day treatment period, resolved after reduction to 100 mg/day) was “hot flushes and vaginal dryness” and the menstrual status [2, 3] was “sustained amenorrhea”. For the same molecule, the pelvic pain [2, 3] was “substantially reduced”, the “mean uterine volume by MRI” value ([2]; n = 6, after 12 weeks, 200 mg/day, baseline mean 320 cm^3) was 122 cm^3 and the menstrual status ([2]; n = 6, weeks 13-24, 100 mg/day) was “remained in amenorrhea”. The “all of the remaining EHP-30 scales” value ([2]; single patient, after 24 weeks) was 0, the “endometrial thickness by vaginal ultrasound” value ([2]; single patient, after 24 weeks) was 3 mm and the “hemoglobin (Hb) level” value [2, 4] was 13.6 g/dL. For the same molecule, the “uterine volume by MRI” value [2, 4] was 440 cm^3, the menstrual status ([2]; single patient, after 24 weeks of treatment) was “still in amenorrhea” and the “EHP-30 scale for emotional well-being” value ([2]; single patient, after 24 weeks, baseline 58.3) was 4.2. For the same molecule, the “uterine volume on clinical evaluation, equivalent weeks of gestation” value ([2]; single patient, after first 12 weeks, 200 mg/day, 16-17 weeks before treatment) was 10 weeks of gestation, the “uterine volume by MRI” value ([2]; single patient, after first 12 weeks, 200 mg/day, baseline approximately 875 cm^3) was 290 cm^3 and the “concentration of E2” value ([2]; single patient, after four weeks of 200 mg/day oral (choline salt), baseline 45 pg/mL) was “less than 20 pg/mL”. The “side effects (hot flushes, vaginal dryness) after dose reduction” value ([2]; single patient, after reduction to 100 mg/day) was “disappeared”, the “5-scaled EHP-30 score” value ([2]; single patient, end of first 12 weeks, 200 mg/day) was 0 and the side effects ([2]; single patient, first treatment period, 200 mg/day) was “a few instances of hot flushes and vaginal dryness”. For the same molecule, the menstrual status ([2]; single patient, initial 12-week period, 200 mg once daily) was “remained in amenorrhea”, the “hemoglobin (Hb) level” value ([2]; single patient, week 12, 200 mg/day, baseline 10 g/dL) was 12.2 g/dL and the E2 level ([2]; single patient, week 16, reduced dose 100 mg/day (weeks 13-24)) was 38 pg/mL. The E2 level ([2]; single patient, week 20, reduced dose 100 mg/day (weeks 13-24)) was 26 pg/mL, the E2 level ([2]; single patient, week 24, reduced dose 100 mg/day (weeks 13-24)) was 52 pg/mL and the “bone mineral density T-scores and Z-scores (femoral neck, lumbar spine), DEXA” value ([2]; single patient, week 24 versus baseline) was “unchanged”.
